According to US20240091390A1, “IMPROVED CHOLECYSTOKININ-2 RECEPTOR (CCK2R) TARGETING FOR DIAGNOSIS AND THERAPY” (Medizinische Universität Innsbruck, priority 2021, published 2024):

What was measured:
[1] = Stability against enzymatic degradation in vivo (radio-HPLC of blood); parameters: species or system BALB/c mice; settings: ^177Lu-labelled, 30 min p.i.
Method: To further characterise the stability of the radiolabelled peptidomimetic in vivo, metabolic studies were carried out in 5-6-week-old female BALB/c mice (Charles River, Sulzfeld, Germany) injected intravenously with ^177Lu-labelled and ^68Ga-labelled peptidomimetics. All animal experiments were conducted in compliance with the Austrian animal protection laws and with the approval of the Austrian Ministry of Science. To allow monitoring of the metabolites by radio-HPLC, mice were injected with a higher amount of radioactivity (20-40 MBq ^177Lu, corresponding to ˜1 nmol total peptide, or ˜10 MBq ^68Ga, corresponding to ˜1 nmol total peptide) through a lateral tail vein and euthanized by cervical dislocation at selected time points p.i. […] A sample of blood was collected and the degradation was assessed by radio-HPLC. For this purpose blood samples were precipitated with ACN, centrifuged at 2000 g for 2 min and diluted with water (1:1/v:v) prior to HPLC analysis using a Dionex chromatography system including radiodetection and UV detection equipped with a Phenomenex Jupiter Proteo C12 column (90 Å, 4 μm, 250×4.6 mm) column using a water/acetonitrile/0.1% TFA gradient system.

[2] = 10 min after intravenous injection; cited from earlier work
[3] = cited from earlier work

Compound	percentage of intact radioligand present in the blood [1]	intact peptide in urine and blood [2]	biological half-life in vivo [3]
CSCC[C@H](NC(=O)[C@H](Cc1c[nH]c2ccccc12)NC(=O)CNC(=O)[C@H](Cc1ccc(O)cc1)NC(=O)[C@H](C)NC(=O)[C@@H](CCC(=O)O)NC(=O)[C@@H](CCC(=O)O)NC(=O)[C@@H](CCC(=O)O)NC(=O)[C@@H](CCC(=O)O)NC(=O)[C@@H](CCC(=O)O)NC(=O)[C@@H](CCC(=O)O)NC(=O)CN1CCN(CC(=O)O)CCN(CC(=O)O)CCN(CC(=O)O)CC1)C(=O)N[C@@H](CC(=O)O)C(=O)N[C@@H](Cc1ccccc1)C(N)=O [^177Lu-PP-F11, metal not drawn]	5.5%	no intact peptide could be found	
[1,4,7,10-tetraazacyclodocecan-1,4,7,10-tetraacetic acid^0,D-Glu^1,DesGlu^2-6]minigastrin [^111In-DOTA-MG11]			below five minutes
